Measurements published in US4548923A, “Muramyl peptides and processes for their manufacture” (Ciba Geigy Corporation, priority 1982, dated 1985).

Columns and labels:
Alveolar rat macrophages = test: macrophage activation: cytotoxicity of alveolar rat macrophages against 125I-marked tumour cells; format: cell-based
Procedure: Alveolar rat macrophages are obtained by lung washing, plated out and incubated in vitro for 24 hours either with liposomes that are charged with the active ingredient, or with the active ingredient in physiological salt solution (phosphate buffered saline, PBS), ^125 I-marked tumour cells are added and incubation is continued for a further 72 hours. Subsequently the dead tumour cells are washed away and the number of tumour cells still living is determined on the basis of their radioactivity. […] The specific cytotoxicity [%] is calculated as follows: [formula]
Further details of the above-mentioned test method are described in I. J. Fidler et. al., J. Biol. Response Modifiers 1, 43-55 (1982).

[1] = test for pyrogenity in rabbits (European Pharmacopoeia); format: in vivo; details: subcutaneous administration, 30 mg/kg
Text: The test for pyrogenity can be carried out in rabbits in accordance with the instructions given in European Pharmacopoeia, Vol. 2, pages 56-59 (1971).

[2] = Active ingredient in 100 μg of lipsomes per 0.2 ml, 0.2 μg/culture
[3] = Active ingredient in 100 μg of lipsomes per 0.2 ml, 2 μg/culture
[4] = Active ingredient in 100 μg of lipsomes per 0.2 ml, 20 μg/culture
[5] = Active ingredient in 0.2 ml of PBS, 0.2 μg/culture
[6] = Active ingredient in 0.2 ml of PBS, 2 μg/culture
[7] = Active ingredient in 100 μg of lipsomes per 0.2 ml, 0.02 μg/culture
[8] = Active ingredient in 0.2 ml of PBS, 0.02 μg/culture

For `CCCCCCCCCCCCCCCC(=O)OC[C@H](COP(=O)([O-])OCCNC(=O)[C@H](C)NC(=O)CC[C@@H](NC(=O)[C@H](C)NC(=O)[C@@H](C)O[C@H]1[C@H](O)[C@@H](CO)OC(O)[C@@H]1NC(C)=O)C(=O)OCCCC)OC(=O)CCCCCCCCCCCCCCC.[Na+]` (stereo partly drawn) [Active ingredient I, the sodium salt of N-acetylmuramyl-L-alanyl-D-glutamyl-(Cα)-n-butyl ester-(Cγ)-L-alanine-2-(1,2-dipalmitoyl-sn-glycero-3-hydroxyphosphoryloxy)-ethylamide], the “Specific cytotoxity [%]” value (Alveolar rat macrophages; [2]) was 56%, the “Specific cytotoxity [%]” value (Alveolar rat macrophages; [3]) was 51% and the “Specific cytotoxity [%]” value (Alveolar rat macrophages; [4]) was 44%. For the same compound, the “Specific cytotoxity [%]” value (Alveolar rat macrophages; [5]) was 39%, the “Specific cytotoxity [%]” value (Alveolar rat macrophages; [6]) was 59% and the pyrogenic effect [1] was “no pyrogenic effect”.

In the case of `CCCCCCCCCCCCCCCC(=O)OCC(COP(=O)([O-])OCCNC(=O)C(C)NC(=O)CCC(NC(=O)C(C)NC(=O)C(C)OC1C(O)C(CO)OC(O)C1NC(C)=O)C(N)=O)OC(=O)CCCCCCCCCCCCCCC.[Na+]` [sodium salt of N-acetylmuramyl-L-alanyl-D-isoglutaminyl-L-alanine-2-(1,2-dipalmitoyl-sn-glycero-3-hydroxyphosphoryloxy)-ethylamide, reference compound], the pyrogenic effect [1] is reported as “highly pyrogenic”.

In the case of “the sodium salt of N--acetylmuramyl-L-valyl-D-glutamyl-(C α)-n-butyl ester-(Cγ)-L-alanine-2-(1,2-dipalmitoyl-sn-glycero-3-hydroxyphosphoryloxy)-ethylamide [compound IV]”, the “Specific cytotoxity [%]” value (Alveolar rat macrophages; [7]) is reported as 64%, the “Specific cytotoxity [%]” value (Alveolar rat macrophages; [2]) is reported as 68% and the “Specific cytotoxity [%]” value (Alveolar rat macrophages; [3]) is reported as 52%. The “Specific cytotoxity [%]” value (Alveolar rat macrophages; [8]) was 23%, the “Specific cytotoxity [%]” value (Alveolar rat macrophages; [5]) was 18% and the “Specific cytotoxity [%]” value (Alveolar rat macrophages; [6]) was 20%.

With “the sodium salt of N--acetylmuramyl-L-α-aminobutyryl-D-glutamyl-(Cα)-n-butyl ester-(Cγ)-L-alanine-2-(1,2-dipalmitoyl-sn-glycero-3-hydroxyphosphoryloxy)-ethyl-amide [compound II]” the “Specific cytotoxity [%]” value (Alveolar rat macrophages; [2]) was 10%, the “Specific cytotoxity [%]” value (Alveolar rat macrophages; [3]) was 23% and the “Specific cytotoxity [%]” value (Alveolar rat macrophages; [4]) was 11%. For the same compound, the “Specific cytotoxity [%]” value (Alveolar rat macrophages; [5]) was 21%, the “Specific cytotoxity [%]” value (Alveolar rat macrophages; [6]) was 48% and the “Specific cytotoxity [%]” value (Alveolar rat macrophages; Active ingredient in 0.2 ml of PBS, 20 μg/culture) was 74%.

In the case of “the sodium salt of N-propionylnormuramyl-L-alanyl-D-glutamyl-(Cα)-n-butyl ester-(Cγ)-L-alanine-2-(1,2-dipalmitoyl-sn-glycero-3-hydroxyphosphoryloxy)-ethylamide [Active ingredient II]”, the “Specific cytotoxity [%]” value (Alveolar rat macrophages; [7]) is reported as 64%, the “Specific cytotoxity [%]” value (Alveolar rat macrophages; [2]) is reported as 76% and the “Specific cytotoxity [%]” value (Alveolar rat macrophages; [3]) is reported as 79%. The “Specific cytotoxity [%]” value (Alveolar rat macrophages; [8]) was 3%, the “Specific cytotoxity [%]” value (Alveolar rat macrophages; [5]) was 81% and the “Specific cytotoxity [%]” value (Alveolar rat macrophages; [6]) was 47%.
